Among the data in patent US20160002294A1, “NOVEL POLYPEPTIDES HAVING SATIETY HORMONE RELEASING ACTIVITY” (SOLAE LLC, priority 2013, published 2016) are EC50 values, retold here.

Test [1] concerns STC-1 cells. The note with it: 4 h.
Procedure: To assay for CCK release activity, SEQ ID NO: 1 was dissolved in Dulbecco's phosphate buffered saline (D-PBS) at 10 mg/ml. This solution was then diluted to between 0.002 and 4 mg/ml with d-PBS, then added to media of STC-1 cells (passage 25 to 28) in 1:1 ratio of D-PBS and Dulbecco's Modified Eagle's Medium (DMEM-high glucose) and incubated with the cells at 37° C. (99° F.) and a CO2 level of 5% for 4 hours. The solution containing SEQ ID NO: 1 was added to cells at a variety of concentrations ranging from 0.001 to 2 mg/ml to generate a dose-response curve.
Following the incubation period, concentrations of CCK released by STC-1 cells into the media were assayed using a commercially available immunoassay kit for CCK detection from Phoenix Pharmaceuticals, Burlingame, Calif. (catalogue number EK-069-04). Assays were performed according to the manufacturer's instructions using a standard curve covering a range of concentrations from 0.4 to 1000 pg/well. Absorbance was measured at a wavelength of 450 nm.
CCK quantities obtained from each tested concentration of SEQ ID NO: 1 were plotted vs. log concentration of peptide. A dose-response curve was then generated by fitting the data with a logistic function using OriginLab graphing software.
Each variant was assayed for CCK activity at 2 mg/ml using the method described in Example 1.
In test [2] the test system is STC-1 cells. Conditions: 2 h.
Procedure: To assay for GLP-1 release activity, SEQ ID NO: 1 was dissolved in Dulbecco's phosphate buffered saline (D-PBS) at 10 mg/ml. This solution was diluted to between 0.002 and 4 mg/ml with D-PBS, then added to media of STC-1 cells (passage 25 to 28) in 1:1 ratio of D-PBS and Dulbecco's Modified Eagle's Medium (DMEM-high glucose) and incubated with the cells at 37° C. (99° F.) and a CO2 level of 5% for 2 hours. The solution containing SEQ ID NO: 1 was added to cells at a variety of concentrations ranging from 0.001 to 2 mg/ml to generate a dose-response curve.
Following the incubation period, concentrations of GLP-1 released by the STC-1 cells into the media were assayed using a commercially available immunoassay kit for GLP-1 detection from Phoenix Pharmaceuticals, Burlingame, CA (catalogue number EK-028-11). Assays were performed according to the manufacturer's instructions using a standard curve covering a range of concentrations from 0.4 to 1000 pg/well. Absorbance was measured at a wavelength of 450 nm.
GLP-1 quantities obtained from each tested concentration of SEQ ID NO: 1 were plotted vs. log concentration of peptide. A dose-response curve was then generated by fitting the data with a logistic function using OriginLab graphing software.
Each variant was assayed for GLP-1 activity at 2 mg/ml using the method described in Example 2.

Where two headings read alike, the source gives them in different places.

The term EC50 denotes the concentration at which the effect is half-maximal. Low values mean greater potency, high ones weaker potency. Turning to “H-TSLDFPALSWLRL-OH [SEQ ID NO: 1, NH2-TSLDFPALSWLRL-COOH]”, the values for the 50% effective concentration (EC50) in the test with STC-1 cells [1] and in the test with STC-1 cells [2] were 43 µM and 186 µM, respectively.
